Assay results taken from publication PMC6365497, “2-aminoimidazoles collapse mycobacterial proton motive force and block the electron transport chain” (Scientific Reports, 2019).
In brackets after ≈: the same amount, converted by molar mass. Read-outs that look alike come from different tables or passages of the source.

Tests used:
M. tuberculosis [1] = test system: M. tuberculosis; parameters: method as in PMID 28749949; details: cited from earlier work
M. smegmatis [2] = assay: Determination of Δψ collapse by DisC3(5); type: cell-based
M. smegmatis IMVs [3] = assay: NADH oxidation by IMVs; type: biochemical
M. tuberculosis [4] = assay: microbe, parasite or virus in culture; type: cell-based, Mycobacterium tuberculosis
M. smegmatis IMVs [5] = assay: ETC activity assay with IMVs (INT reduction); type: biochemical
[6] = test system: M. tuberculosis H37Rv mc^2 6206; type: cell-based, Mycobacterium tuberculosis
M. tuberculosis [7] = assay: β-lactam potentiation assay; type: cell-based, Mycobacterium tuberculosis
M. smegmatis [8] = assay: Kinetic measurement of alamarBlue reduction
[9] = test system: M. tuberculosis mc^2 6206; type: cell-based, Mycobacterium tuberculosis
M. smegmatis IMVs [10] = assay: Determination of ΔpH collapse with IMVs (ACMA)
M. smegmatis [11] = assay: MIC against M. smegmatis; type: cell-based
M. tuberculosis [12] = assay: Quantification of intracellular ATP
M. tuberculosis [13] = assay: Kinetic measurement of alamarBlue reduction; type: cell-based, Mycobacterium tuberculosis
M. smegmatis IMVs [14] = type: biochemical

Row | Compound | Δψ collapse (summary) (M. smegmatis [2]) | Effect on NADH oxidation (fluorescence decay 340ex/460em) (M. smegmatis IMVs [3]) | NADH oxidation (summary) (M. smegmatis IMVs [3]) | ETC activity (INT reduction at 490 nm) (M. smegmatis IMVs [5]) | ETC activity (summary) (M. smegmatis IMVs [5]) | NADH/NAD+ ratio (summary) [6] | NADH/NAD^+ ratio [6] | Fold potentiation of Carbenicillin (M. tuberculosis [7]) [x] | Fold potentiation of Meropenem (M. tuberculosis [7]) [x] | β-lactam potentiation (summary) (M. tuberculosis [7]) | alamarBlue reduction (M. smegmatis [8]) | Effect on oxygen consumption rate (OCR) [9] | O2 consumption rate (summary) [9] | ΔpH collapse (summary) (M. smegmatis IMVs [10]) | [ATP]i (summary) (M. tuberculosis [12]) | alamarBlue reduction (M. tuberculosis [13]) | alamarBlue reduction (summary) (M. tuberculosis [13]) | further results
1 | C[C@@H](O)[C@H]1C(=O)N2C(C(=O)O)=C(S[C@@H]3CN[C@H](C(=O)N(C)C)C3)[C@H](C)[C@H]12 [Meropenem] |  |  |  |  |  |  |  |  |  |  |  |  |  |  |  |  |  | MIC (MIC95) (M. tuberculosis [1]): 8 µg/mL (≈ 20.9 µM)
2 | CCCCCCCCCCCCCNC(=O)CCCc1cnc(N)[nH]1 [RA13] | N o effect | did not have any effect | N o effect | only affected INT reduction in the presence of both substrates | Weak ↓ | N o effect | inactive | 1.5 | 2 | M a r g in a l ↑ | did not have an effect | minimal changes in OCR | Weak ↑ | Weak | N o effect | did not have an effect | N o effect | Effect on Δψ (membrane potential), DiSC3(5) fluorescence reversal (M. smegmatis [2]): no effect; MIC (M. tuberculosis [4]): > 1000 µM; MIC (M. smegmatis [11]): > 1000 µM
3 | CSc1ccc2c(c1)N(CCC1CCCCN1C)c1ccccc1S2 (stereo not drawn) [TRZ, thioridazine, reference compound] |  | significantly slowed down |  | none and potent and intermediate |  | S t r o ng ↑ | increased | 16 | 32 |  |  | significantly increased M. tuberculosis OCR |  |  |  |  |  | Δψ collapse (summary) (M. smegmatis [2]; Table S2 summary): Intermediate; NADH oxidation (summary) (M. smegmatis IMVs [3]; Table S2 summary): S t r o ng ↓; MIC (M. tuberculosis [4]; Mycobacterium tuberculosis, read-out: MIC (MIC95)): 62.5 µM (≈ 23.2 µg/mL); ETC activity (summary) (M. smegmatis IMVs [5]; Table S2 summary): S t r o ng ↓; Restoration of inhibited NADH oxidation by CFZ (M. smegmatis IMVs [14]): not altered by CFZ; Rescue by CFZ (summary) (M. smegmatis IMVs [14]; Table S2 summary): No; β-lactam potentiation (summary) (M. tuberculosis [7]; Table S2 summary): Intermediate ↑; ΔpH collapse (summary) (M. smegmatis IMVs [10]; Table S2 summary): S t r o ng; [ATP]i (summary) (M. tuberculosis [12]; Table S2 summary): S t r o ng ↓; alamarBlue reduction (summary) (M. tuberculosis [13]; Table S2 summary, mycobacteria): S t r o ng ↓
4 | carbonyl cyanide m-chlorophenyl hydrazine [CCCP, reference compound] | S t r o ng | tendency to accelerate NADH oxidation | Weak ↑ | tendency to increase ETC activity | Weak ↑ | N o effect | did not increase | 9.6 | 16 | Intermediate ↑ | inhibited | bell-shaped, dose-response effect | ↑ t he n ↓ | Intermediate | Intermediate ↓ | inhibited | Weak ↓ | MIC (M. tuberculosis [4]; read-out: MIC (MIC95)): 20 µM; Rescue by CFZ (summary) (M. smegmatis IMVs [14]): N o effect
